± gives the expanded uncertainty stated by the source.
How the values were obtained:
[1] = refractive index (Na D-line) (dimensionless); conditions: 298.15 K; 101.33 kPa; Liquid; Standard Abbe refractometry
[2] = Liquid, Ebulliometric method (Recirculating still)

Cc1ccccc1C [1,2-dimethylbenzene]
Conditions | refractive index
[1] | 1.5026 ± 0.0004

c1ccsc1 [thiophene]
[2]
Conditions | vapor or sublimation pressure [kPa]
328.01 K | 37.5 ± 0.37
331.52 K | 42.75 ± 0.38
337.52 K | 53.02 ± 0.38
341.13 K | 60.12 ± 0.4
346.44 K | 71.92 ± 0.41
350.46 K | 82.01 ± 0.43
353.38 K | 90.03 ± 0.45
356.73 K | 99.99 ± 0.45

Conditions | refractive index
[1] | 1.5255 ± 0.0004

CCCS [1-propanethiol]
[2]
Conditions | vapor or sublimation pressure [kPa]
310.52 K | 34.6 ± 0.37
315.47 K | 41.96 ± 0.38
320.68 K | 51.03 ± 0.39
325.73 K | 61.23 ± 0.4
330.38 K | 72.02 ± 0.42
334.62 K | 83.15 ± 0.43
337.03 K | 90.03 ± 0.45
340.63 K | 101.19 ± 0.46

Conditions | refractive index
[1] | 1.4353 ± 0.0004

CCSCC [3-thiapentane]
[2]
Conditions | vapor or sublimation pressure [kPa]
333.82 K | 35.84 ± 0.37
338.63 K | 42.73 ± 0.37
344.7 K | 52.89 ± 0.39
350.02 K | 63.3 ± 0.4
353.56 K | 71.09 ± 0.41
358.41 K | 83.03 ± 0.42
361.02 K | 90.03 ± 0.44
361.03 K | 90.03 ± 0.44
365.05 K | 101.92 ± 0.45

Conditions | refractive index
[1] | 1.44 ± 0.0004

Cc1ccccc1 [toluene]
[2]
Conditions | vapor or sublimation pressure [kPa]
352.64 K | 38.32 ± 0.37
356.84 K | 44.23 ± 0.37
361.31 K | 51.31 ± 0.38
367.88 K | 63.37 ± 0.39
372.12 K | 72.27 ± 0.41
375.63 K | 80.42 ± 0.42
379.44 K | 90.03 ± 0.42
379.45 K | 90.03 ± 0.42

Conditions | refractive index
[1] | 1.4939 ± 0.0004

From the NIST ThermoML archive (doi:10.1021/je060093l)
